{
  "source": "patent US10682371B2",
  "about": "“Small molecule conjugates specifically activated in tumor microenvironment for targeting and use thereof” (priority 2014, dated 2020)",
  "key": {"4T1 cells": {"system": "4T1 cells", "assay": "BALB/C mice model for tumor metastasis (4T1, lung metastases)", "assay_type": "in vivo", "conditions": "IV every three days for 4 times, Paclitaxel 4 mg/kg", "method": "(§1) 1) 4T1 cells were purchased from American type culture collection (ATCC) and identified according the specification provided by ATCC. Cells were cultivated in DMEM culture solution containing 10% fetal bovine serum at 37° C. and 5% CO2. The cells were passaged for every three days and cells within the 15th passage were used.\n2) Production of tumor metastasis. 10^6 […] were subcutaneously injected to the back of the BALB/C mice. Mice were randomly grouped after the tumor grew to about 1.5 cm. The subcutaneous tumor was removed by surgery and drug treatment began. Mice were killed after anesthesia on day 27. The whole lung was taken out and put into Bouin's solution for staining. The number of the tumor metastasized to lung was counted with anatomical microscope.\n(§2) The control group was administered by physiological saline. Drugs were administered once for every three days for 4 times.\nas §2\nAccording to the clinical application of B1, B2, B3 and B4, drugs were intravenously injected (IV). […] The control group was administered by physiological saline. Drugs were administered once for every three days for 4 times.\nAccording to the clinical application of D1, D2, D3 and D4, drugs were intravenously injected (IV). […] The control group was administered by physiological saline. Drugs were administered once for every three days for 4 times."}, "[1]": {"system": "tumor-derived immunosuppressive T cells (T reg: CD4+, CD25+, Foxp3+); CD8 T cells", "assay": "Immunological stimulation test in mice receiving tumor treatment (T reg, CD8 T cells)", "assay_type": "in vivo", "conditions": "mice receiving tumor treatment", "description": "We further studied the immunological stimulation property of Legutaxel. […] On the contrary, the index for tumor-derived immunosuppressive T cells in treatment group by Legutaxel decreased due to targeted chemotherapy (see panels in FIGS. 3A and 3B)."}, "[2]": {"system": "Human prostate cancer PC-3 cells / Panc-1 cells", "assay": "Tumor treatment in nude mice (PC-3 cells purchased, Panc-1 cells injected; Examples 22, 32, 42)", "assay_type": "in vivo", "conditions": "nude mice, IV once weekly for four weeks, Paclitaxel 8 mg/kg", "method": "as §1, with “Human prostate cancer PC-3” for “4T1”\n2) Production of tumor. 5×10^6Panc-1 cells were subcutaneously injected to the back of the nude mice. Mice were randomly grouped after the tumor reached at least 100 mm^3. Then treatment began and the day on which the treatment began was day 1.\nThe control group was administered by physiological saline. Drugs were administered once weekly for four weeks.\nAccording to the clinical application of B1, B2, B3 and B4, drugs were intravenously injected (IV). […] The control group was administered by physiological saline. Drugs were administered once weekly for four weeks."}, "tumor CD8+ T cells": {"system": "tumor CD8+ T cells", "assay_type": "in vivo, C57 mice", "conditions": "CD8 positive cells in CD45 positive cells of tumor", "method": "(§3) 4) Analysis on tumor CD8+ T cells. The tumor tissue was homogenated and individual cells in the tumor were filtered, separated and washed by buffer twice, then cultivated with the leucocyte common antigen CD45-PE and CD8-FITC marked antibodies for 1 hour at ambient temperature. The cells were washed by phosphate buffer containing 1% fetal bovine serum twice and then analyzed for the ratio of the T lymphocyte antigen (CD8) positive cells in the leucocyte common antigen (CD45) positive cells by flow cytometry.\nas §3, with “CD45-PE and T-lymphocyte antigen CD8-FITC marked” for “CD45-PE and CD8-FITC marked”, “flow cytometry. Increasement of the ratio indicates increased T lymphocyte cells and thus the animal immunity against the tumor was improved.” for “flow cytometry.”\nas §3, with “cytometry. Increasement of the ratio indicates increased T lymphocyte cells and thus the animal immunity against the tumor was improved.” for “cytometry.”"}, "D121 lung tumor cells": {"system": "D121 lung tumor cells", "assay_type": "in vivo, C57 mice", "conditions": "drugs weekly for 4 weeks", "method": "1) D121 lung tumor cells were purchased from ATCC. Cells were cultivated in DMEM culture solution containing 10% fetal bovine serum at 37° C. and 5% CO2. The cells were passaged for every three days and cells within the 15th passage were used.\n(§4) 2) Tumor immunization. 5×10^5 D121 lung cancer cells (purchased from ATCC) which were killed by irradiation were intraperitoneally injected to mice. The mice were injected for 3 times, once every two weeks. After immunization, mice were injected with tumor cells and the drugs were administered weekly for 4 weeks.\n3) Production of tumor. At day 32, 10^6 live lung tumor cells were subcutaneously injected to the back of the C57 mice immunized by tumor. Treatment began when the tumor grew to 0.3-0.4 cm.\nas §4, with “4 weeks. In table 16 below the immune group was immuned with D121 lung tumor cells and the group without dead D121 lung tumor cells was injected with physiological saline as controls.” for “4 weeks.”\n3) Production of tumor. After immunization (4 weeks later), 10^6 live lung tumor cells were subcutaneously injected to the back of the C57 mice immunized by tumor. Treatment began when the tumor grew to 0.3-0.4 cm. Tumor size (mm^3) were noted and tumor inhibition rates were calculated.\nas §4, with “4 weeks. In the table below the immune group was immuned with D121 lung tumor cells and the group without dead D121 lung tumor cells was injected with physiological saline as controls.” for “4 weeks.”\n3) Production of tumor. At day 32, 10^6 live D121 lung tumor cells were subcutaneously injected to the back of the C57 mice immunized by tumor. Treatment began when the tumor grew to 0.3-0.4 cm.\n1) D121 lung tumor cells were purposed from ATCC. Cells were cultivated in DMEM culture solution containing 10% fetal bovine serum at 37° C. and 5% CO2. The cells were passaged for every three days and cells within the 15th passage were used."}, "[3]": {"conditions": "4T1, BALB/C mice, lung, day 27, S1′-S4′ 12 mg/kg"}, "[4]": {"conditions": "Table 28, BALB/C mice, 4T1, lung metastases day 27, A1-A4 12 mg/kg"}, "[5]": {"conditions": "Table 26, A1-A4 24 mg/kg, Day 10"}, "[6]": {"conditions": "D121 immunized C57 mice, Day 18 (Example 23)"}},
  "note": "Where two headings read alike, the source gives them in different places.",
  "data": [
    {"substance": "Paclitaxel [reference compound]", "values": [
      {"measurement": "Inhibitory rate on metastasis", "setting": "4T1 cells; [3]", "value": 5.9, "unit": "%"},
      {"measurement": "Number of metastasized tumor", "setting": "4T1 cells; [3]", "value": "128 ± 25"},
      {"measurement": "Inhibitory rate on metastasis", "setting": "4T1 cells; [4]", "value": 6.8, "unit": "%"},
      {"measurement": "Number of metastasized tumor", "setting": "4T1 cells; [4]", "value": "137 ± 32"},
      {"measurement": "Index for tumor-derived immunosuppressive T cells (T reg: CD4+, CD25+, Foxp3+)", "setting": "[1]", "value": "greatly increased"},
      {"measurement": "Size of tumor (mm^3) Day 10", "setting": "[2]; [5]", "value": "123.04 ± 125.3", "unit": "mm^3"},
      {"measurement": "inhibitory rate on tumor Day 10", "setting": "[2]; [5]", "value": 58.3, "unit": "%"},
      {"measurement": "Size of tumor (mm^3) Day 24", "setting": "[2]; Table 26, A1-A4 24 mg/kg", "value": "252.49 ± 248.5", "unit": "mm^3"},
      {"measurement": "inhibitory rate on tumor Day 24", "setting": "[2]; Table 26, A1-A4 24 mg/kg", "value": 33.7, "unit": "%"},
      {"measurement": "inhibitory rate on tumor Day 10", "setting": "[2]; S1′-S4′ 24 mg/kg, Day 10", "value": 7.5, "unit": "%"},
      {"measurement": "Size of tumor (mm^3) Day 24", "setting": "[2]; S1′-S4′ 24 mg/kg", "value": "249.54 ± 95.46", "unit": "mm^3"},
      {"measurement": "inhibitory rate on tumor Day 24", "setting": "[2]; S1′-S4′ 24 mg/kg", "value": 27.9, "unit": "%"},
      {"measurement": "CD8: CD45 (%)", "setting": "tumor CD8+ T cells; D121 immunized C57 mice (Example 23)", "value": 6.6, "unit": "%"},
      {"measurement": "CD8: CD45 (%)", "setting": "tumor CD8+ T cells; Table 27, flow cytometry, immunized C57 mice, D121", "value": 5.7, "unit": "%"},
      {"measurement": "Size of tumor (mm^3) Day 18", "setting": "D121 lung tumor cells; [6]", "value": "1210.28 ± 375.46", "unit": "mm^3"},
      {"measurement": "inhibitory rate on tumor % Day 18", "setting": "D121 lung tumor cells; [6]", "value": 23.1, "unit": "%"},
      {"measurement": "inhibitory rate on tumor % Day 18", "setting": "D121 lung tumor cells; Table 27, immunized C57 mice, D121 lung tumor, Day 18", "value": 20.47, "unit": "%"}
    ]}
  ]
}
